Measured values reported in patent EP4763845A1, “CYANO AROMATIC RING DERIVATIVE AND PHARMACEUTICAL USE THEREOF” (Haisco Pharmaceutical Group Co., Ltd., priority 2023, dated 2025).

Molecular target: T1, AR protein (Homo sapiens, UniProt P10275)
T1 construct: VCap is a human prostate cancer cell line purchased from ATCC; host or cells: VCaP human prostate cancer cells
T1 sequence (P10275 1-920): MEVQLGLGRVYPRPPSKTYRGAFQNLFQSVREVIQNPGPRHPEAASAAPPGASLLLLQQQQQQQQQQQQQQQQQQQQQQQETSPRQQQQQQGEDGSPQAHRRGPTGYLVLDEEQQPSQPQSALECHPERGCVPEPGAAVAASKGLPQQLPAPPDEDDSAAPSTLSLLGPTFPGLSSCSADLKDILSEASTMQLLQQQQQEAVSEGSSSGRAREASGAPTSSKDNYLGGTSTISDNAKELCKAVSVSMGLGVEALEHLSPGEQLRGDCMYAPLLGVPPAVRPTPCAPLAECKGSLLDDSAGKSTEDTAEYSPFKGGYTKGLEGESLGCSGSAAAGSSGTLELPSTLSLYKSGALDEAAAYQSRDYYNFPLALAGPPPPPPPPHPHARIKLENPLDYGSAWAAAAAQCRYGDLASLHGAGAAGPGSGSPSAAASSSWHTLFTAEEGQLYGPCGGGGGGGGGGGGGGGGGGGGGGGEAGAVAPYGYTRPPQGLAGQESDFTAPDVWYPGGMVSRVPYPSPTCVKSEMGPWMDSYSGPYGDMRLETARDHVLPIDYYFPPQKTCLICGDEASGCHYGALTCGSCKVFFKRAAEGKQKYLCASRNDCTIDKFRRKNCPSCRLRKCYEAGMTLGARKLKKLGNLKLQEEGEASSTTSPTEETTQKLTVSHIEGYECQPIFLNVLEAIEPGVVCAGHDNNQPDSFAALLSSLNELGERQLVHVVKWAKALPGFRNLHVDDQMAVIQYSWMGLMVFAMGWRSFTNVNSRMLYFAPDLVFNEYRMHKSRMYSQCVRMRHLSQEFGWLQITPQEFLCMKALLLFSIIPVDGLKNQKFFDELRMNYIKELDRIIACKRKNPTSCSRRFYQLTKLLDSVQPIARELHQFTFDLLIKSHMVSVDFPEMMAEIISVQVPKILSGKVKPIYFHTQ
Assay: Detection of AR degradation in VCaP cells (automated western blot)
Assay type: cell-based
Conditions: for DC50: degradation of AR protein in VCaP cells, 24 hours incubation, read-out: DC50; for Degradation rate %: AR protein in VCaP cells, concentration of 30 nM, 24 hours
Method: VCap is a human prostate cancer cell line purchased from ATCC and cultured under the following conditions: DMEM + 10% FBS + 1% penicillin-streptomycin solution. The cells were cultured in a 37°C, 5% CO2 incubator. The cells were seeded in a 6-well plate, with 5 × 10^5 cells/well. After seeding, compounds at various concentrations were added, and the plate was incubated for 24 hours in the 37°C, 5% CO2 incubator. Following incubation, the cells were harvested and RIPA lysis buffer (beyotime, Cat. P0013B) was added. The cells were lysed on ice for 15 minutes and centrifuged at 12,000 rpm at 4°C for 10 minutes. The supernatant protein samples were collected and the protein was quantified using the BCA kit (Beyotime, Cat. P0009). Then the protein was diluted to 0.25 mg/mL. The expressions of AR (CST, Cat.5153S) and the internal reference β-actin (CST, Cat. 3700S) were detected using a fully automated western blot quantitative analyser (Proteinsimple). Using the "Compass for SW" software, the relative peak area of AR was calculated when the internal reference area was 10,000. The proportion of AR relative to the solvent control group at various drug concentrations was calculated according to Equation (1), where ARtreat represents the relative peak area of the compound-treated group, and ARsolvent represents the relative peak area of the solvent control group. The processed data obtained from Equation (1) were analysed using GraphPad Prism 8.3.0 software, and the DC50 value was calculated using a four-parameter nonlinear regression model. The degradation rate at a specified concentration was determined as 100-AR%. AR% = ARtreat/ ARsolvent × 100% [formula]

DC50 [nM] | Degradation rate % [%] | Compound
< 100 |  | Cc1cc(O[C@H]2C(C)(C)[C@H](NC(=O)c3ccc(N4CCC(CN5CCN6c7cc(F)c(N8CCC(=O)NC8=O)cc7CC[C@H]6C5)CC4)cc3)C2(C)C)cc(C)c1C#N [Compound 80]
< 100 |  | COc1cc(O[C@H]2C(C)(C)[C@H](NC(=O)c3ccc(N4CCC5(CC4)CC(N4CCN6c7cc(F)c(N8CCC(=O)NC8=O)cc7CC[C@H]6C4)C5)cc3)C2(C)C)ccc1C#N [Trifluoroacetate of compound 84]
< 100 |  | COc1cc(O[C@H]2C(C)(C)[C@H](NC(=O)c3ccc(N4CCC5(CC4)CC(CN4CCN6c7cc(F)c(C(=O)N[C@H]8CCC(=O)NC8=O)cc7CC[C@@H]6C4)C5)cc3)C2(C)C)ccc1C#N [Trifluoroacetate of compound 5]
< 100 |  | CC1(C)[C@H](NC(=O)c2ccc(N3CCC(CN4CCN5c6cc(F)c(N7CCC(=O)NC7=O)cc6CC[C@H]5C4)CC3)cc2)C(C)(C)[C@H]1Oc1ccc(C#N)c(Cl)c1 [Compound 51]
< 100 |  | CC1(C)[C@H](NC(=O)c2ccc(N3CCC(CN4CCN5c6cc(F)c(N7CCC(=O)NC7=O)cc6CC[C@@H]5C4)CC3)cc2)C(C)(C)[C@H]1Oc1ccc(C#N)c(Cl)c1 [Compound 50]
< 100 |  | [2H]C([2H])([2H])Oc1cc(O[C@H]2C(C)(C)[C@H](NC(=O)c3ccc(N4CCC5(CC4)CC(CN4CCN6c7cc(F)c(C8CCC(=O)NC8=O)cc7CC[C@@H]6C4)C5)cc3)C2(C)C)ccc1C#N (stereo partly shown) [Compound 42]
< 100 |  | CC1(C)[C@H](NC(=O)c2ccc(N3CCC(CN4CCN5c6cc(F)c(C7CCC(=O)NC7=O)cc6CC[C@@H]5C4)CC3)cc2)C(C)(C)[C@H]1Oc1ccc(C#N)c(Cl)c1 (stereo partly shown) [Compound 48]
 | >70 | CC1(C)[C@H](NC(=O)c2ccc(N3CCC(CN4CCN5c6cc(F)c(C7CCC(=O)NC7=O)cc6CC[C@@H]5C4)CC3)cc2)C(C)(C)[C@H]1Oc1ccc(C#N)c(C2CC2)c1 (stereo partly shown) [Compound 117]
< 100 |  | COc1cc(O[C@H]2C(C)(C)[C@H](NC(=O)c3ccc(N4CCC(CN5CCN6c7cc(F)c(N8CCC(=O)NC8=O)cc7CC[C@@H]6C5)CC4)nn3)C2(C)C)ccc1C#N [Trifluoroacetate of compound 62]
< 100 |  | COc1cc(O[C@H]2C(C)(C)[C@H](NC(=O)c3ccc(N4CCC(N5CCN6c7cc(F)c(C8CCC(=O)NC8=O)cc7CC[C@@H]6C5)CC4)cc3)C2(C)C)ccc1C#N (stereo partly shown) [Trifluoroacetate of compound 20]
< 100 |  | CC1(C)[C@H](NC(=O)c2ccc(N3CCC4(CC3)CC(CN3CCN5c6cc(F)c(C7CCC(=O)NC7=O)cc6CC[C@@H]5C3)C4)cc2)C(C)(C)[C@H]1Oc1ccc(C#N)c(Cl)c1 (stereo partly shown) [Compound 54]
< 100 |  | COc1cc(O[C@H]2C(C)(C)[C@H](NC(=O)c3ccc(N4CCC(CN5CCN6c7cc(F)c(N8CCC(=O)NC8=O)cc7CC[C@H]6C5)CC4)nn3)C2(C)C)ccc1C#N [Trifluoroacetate of compound 63]
< 100 |  | COc1cc(O[C@H]2C(C)(C)[C@H](NC(=O)c3ccc(N4CCC(N5CCN6c7cc(F)c(C8CCC(=O)NC8=O)cc7CC[C@H]6C5)CC4)cc3)C2(C)C)ccc1C#N (stereo partly shown) [Trifluoroacetate of compound 21]
 | >70 | COc1cc(O[C@H]2C(C)(C)[C@H](NC(=O)c3ccc(N4CCC5(CC4)CC(N4CCN6c7cc(F)c(C8CCC(=O)NC8=O)cc7CC[C@H]6C4)C5)cc3)C2(C)C)ccc1C#N (stereo partly shown) [Trifluoroacetate of compound 121]
< 100 |  | CC1(C)[C@H](NC(=O)c2ccc(N3CCC4(CC3)CC(CN3CCN5c6cc(F)c(C7CCC(=O)NC7=O)cc6CC[C@@H]5C3)C4)cc2)C(C)(C)[C@H]1Oc1ccc(C#N)c2ncccc12 (stereo partly shown) [Compound 72]
 | >70 | CC1(C)[C@H](NC(=O)c2ccc(N3CCC(CN4CCN5c6cc(F)c(C(=O)N[C@H]7CCC(=O)NC7=O)cc6CC[C@@H]5C4)CC3)cc2)C(C)(C)[C@H]1Oc1ccc(C#N)c(C2CC2)c1 [Compound 119]
< 100 |  | [2H]C([2H])([2H])Oc1cc(O[C@H]2C(C)(C)[C@H](NC(=O)c3ccc(N4CCC5(CC4)CC(CN4CCN6c7cc(F)c(N8CCC(=O)NC8=O)cc7CC[C@@H]6C4)C5)cc3)C2(C)C)ccc1C#N [Trifluoroacetate of compound 44]
< 100 |  | COc1cc(O[C@H]2C(C)(C)[C@H](NC(=O)c3ccc(N4CCC(CN5CCN6c7ncc(C8CCC(=O)NC8=O)cc7CC[C@H]6C5)CC4)cc3)C2(C)C)ccc1C#N (stereo partly shown) [Compound 83]
< 100 |  | [2H]C([2H])([2H])Oc1cc(O[C@H]2C(C)(C)[C@H](NC(=O)c3ccc(N4CCC5(CC4)CC(CN4CCN6c7cc(F)c(C8CCC(=O)NC8=O)cc7CC[C@H]6C4)C5)cc3)C2(C)C)ccc1C#N (stereo partly shown) [Compound 43]
< 100 |  | COc1cc(O[C@H]2C(C)(C)[C@H](NC(=O)c3ccc(N4CCC(N5CCN6c7cc(F)c(C(=O)N[C@H]8CCC(=O)NC8=O)cc7CC[C@H]6C5)CC4)cc3)C2(C)C)ccc1C#N [Trifluoroacetate of compound 24]
< 100 |  | COc1cc(O[C@H]2C(C)(C)[C@H](NC(=O)c3ccc(N4CCC(CN5CCN6c7ccc(N8CCC(=O)NC8=O)cc7CCC6C5)CC4)cc3)C2(C)C)ccc1C#N (stereo partly shown) [Compound 15]
< 100 |  | COc1cc(O[C@H]2C(C)(C)[C@H](NC(=O)c3ccc(N4CCC(N5CCN6c7cc(F)c(C(=O)N[C@H]8CCC(=O)NC8=O)cc7CC[C@@H]6C5)CC4)cc3)C2(C)C)ccc1C#N [Trifluoroacetate of compound 22]
< 100 |  | COc1cc(O[C@H]2C(C)(C)[C@H](NC(=O)c3ccc(N4CCC5(CC4)CC(CN4CCN6c7cc(F)c(C8CCC(=O)NC8=O)cc7CC[C@H]6C4)C5)cc3)C2(C)C)ccc1C#N (stereo partly shown) [Trifluoroacetate of compound 10]
< 100 |  | COc1cc(O[C@H]2C(C)(C)[C@H](NC(=O)c3ccc(N4CCC5(CC4)CC(CN4CCN6c7cc(F)c(C8CCC(=O)NC8=O)cc7CC[C@@H]6C4)C5)cc3)C2(C)C)ccc1C#N (stereo partly shown) [Trifluoroacetate of compound 9]

Compound | DC50 [nM] | Degradation rate % [%]
CC#CCOc1cc(O[C@H]2C(C)(C)[C@H](NC(=O)c3ccc(N4CCC(CN5CCN6c7cc(F)c(C(=O)N[C@H]8CCC(=O)NC8=O)cc7CC[C@@H]6C5)CC4)cc3)C2(C)C)ccc1C#N [Trifluoroacetate of compound 99] |  | >70
CC1(C)[C@H](NC(=O)c2ccc(N3CCC4(CC3)CC(CN3CCN5c6cc(F)c(N7CCC(=O)NC7=O)cc6CC[C@@H]5C3)C4)cc2)C(C)(C)[C@H]1Oc1ccc(C#N)c(Cl)c1 [Compound 56] | < 100 | 
CC1(C)[C@H](NC(=O)c2ccc(N3CCC4(CC3)CC(CN3CCN5c6cc(F)c(C(=O)N[C@H]7CCC(=O)NC7=O)cc6CC[C@@H]5C3)C4)cc2)C(C)(C)[C@H]1Oc1ccc(C#N)c(Cl)c1 [Compound 58] | < 100 | 
COc1cc(O[C@H]2C(C)(C)[C@H](NC(=O)c3ccc(N4CCC(N5CCN6c7cc(F)c(C(=O)N[C@@H]8CCC(=O)NC8=O)cc7CC[C@H]6C5)CC4)cc3)C2(C)C)ccc1C#N [Trifluoroacetate of compound 25] | < 100 | 
COc1cc(O[C@H]2C(C)(C)[C@H](NC(=O)c3ccc(N4CCC5(CC4)CC(N4CCN6c7cc(F)c(C(=O)N[C@H]8CCC(=O)NC8=O)cc7CC[C@H]6C4)C5)cc3)C2(C)C)ccc1C#N [Trifluoroacetate of compound 18] | < 100 | 
COc1cc(O[C@H]2C(C)(C)[C@H](NC(=O)c3ccc(N4CCC(CN5CCN6c7cc(F)c(C(=O)N[C@@H]8CCC(=O)NC8=O)cc7CC[C@H]6C5)CC4)cc3)C2(C)C)ccc1C#N [Compound 14] | < 100 | 
CC1(C)[C@H](NC(=O)c2ccc(N3CCC(CN4CCN5c6cc(F)c(C7CCC(=O)NC7=O)cc6CC[C@H]5C4)CC3)cc2)C(C)(C)[C@H]1Oc1ccc(C#N)c(Cl)c1 (stereo partly shown) [Compound 49] | < 100 | 
